Laboratory results as given in the supplement of paper PMC10307832.

What was measured:
Test in all cases: relative viability (nuclei count vs DMSO), 5 days (fraction); higher = more cells survive
[1] = compound: NC(=O)c1ccc(N(C(N)=O)c2c(F)cccc2F)nc1-c1ccc(F)cc1F [VX-702] + COc1cccc2cc(-c3nc([C@H]4CC[C@H](C(=O)O)CC4)n4ncnc(N)c34)[nH]c12 [OSI-027] (partner 0.5 µM)
Outline: (§1)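 Each reported value is a median over duplicate plates. It expresses relative viability: treated-well nuclei count divided by vehicle-well nuclei count. Lung cancer cell lines in 1536-well plates were dosed by pin tool a day after seeding, alone with one drug or with a fixed anchor-drug dose plus five library-drug doses (not always all listed) in √10 steps, and nuclei were counted after 5 days.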

[2] = compound: CC(C)(C)c1nc(-c2cccc(NS(=O)(=O)c3c(F)cccc3F)c2F)c(-c2ccnc(N)n2)s1 [Dabrafenib] + O=C(c1cc(Cc2n[nH]c(=O)c3ccccc23)ccc1F)N1CCN(C(=O)C2CC2)CC1 [Olaparib] (partner 8 µM)
Outline: as §1

[3] = compound: NC(=O)c1ccc(N(C(N)=O)c2c(F)cccc2F)nc1-c1ccc(F)cc1F [VX-702] + CC(=O)Nc1cccc(-n2c(=O)n(C3CC3)c(=O)c3c(Nc4ccc(I)cc4F)n(C)c(=O)c(C)c32)c1 [Trametinib] (partner 0.02 µM)
Outline: as §1

[4] = compound: NC(=O)c1ccc(N(C(N)=O)c2c(F)cccc2F)nc1-c1ccc(F)cc1F [VX-702] + C[C@@H](Oc1cc(-c2cnn(C3CCNCC3)c2)cnc1N)c1c(Cl)ccc(F)c1Cl [Crizotinib] (partner 1 µM)
Outline: as §1

Cell Line	relative viability ([1]; first compound 0.02 µM)	relative viability ([1]; first compound 0.2 µM)	relative viability ([1]; first compound 0.6325 µM)	relative viability ([1]; first compound 2 µM)	relative viability ([2]; first compound 0.003 µM)	relative viability ([2]; first compound 0.009487 µM)	relative viability ([2]; first compound 0.03 µM)	relative viability ([2]; first compound 0.09487 µM)	relative viability ([2]; first compound 0.3 µM)	relative viability ([3]; first compound 0.02 µM)	relative viability ([3]; first compound 0.2 µM)	relative viability ([3]; first compound 0.6325 µM)	relative viability ([3]; first compound 2 µM)	relative viability ([4]; first compound 0.02 µM)	relative viability ([4]; first compound 0.2 µM)	relative viability ([4]; first compound 0.6325 µM)	relative viability ([4]; first compound 2 µM)
NCI-H1993	0.516	0.518	0.563	0.579	1.17	1.1	1.09	1.06	1.31	0.607	0.495	0.527	0.576	0.882	0.717	0.852	0.792
NCI-H2009	0.688	0.88	0.774	0.801	0.638	0.626	0.625	0.439	0.516	0.284	0.28	0.255	0.272	1.11	1.13	1.18	1.25
NCI-H2023	0.349	0.445	0.441	0.416	0.478	0.432	0.492	0.46	0.458	0.497	0.458	0.458	0.558	0.586	0.563	0.555	0.698
NCI-H2085	0.87	0.636	0.726	0.627	0.759	0.769	0.823	0.71	0.854	0.547	0.537	0.588	0.374	0.921	0.926	1.03	0.908
NCI-H2087	0.55	0.471	0.48	0.497		0.535	0.541	0.385	0.532	0.201	0.181	0.186	0.228	0.847	0.862	0.867	0.739
NCI-H2126	0.774	0.593	0.693	0.713	0.906	0.884	0.871	0.878	0.946	0.511	0.542	0.547	0.544	1.04	1.13	1.05	1.08
NCI-H2170	0.746	0.693	0.698	0.762	0.653	0.605	0.544	0.5	0.625	0.999	0.891	0.958	0.987	1.28	1.09	1.24	1.4
NCI-H2228	0.649	0.514	0.534	0.683	0.757	0.464	0.615	0.439	0.693	0.485	0.518	0.551	0.602	0.628	0.536	0.394	0.45
NCI-H2347	0.491		0.494	0.336		0.629	0.552	0.553	0.599	0.188	0.314	0.384	0.282	0.733	0.763	0.858	0.731
NCI-H2405	0.677	0.641	0.544	0.668		0.838	0.674	0.804	0.89	0.58	0.593	0.615	0.618	0.791	0.813	0.774	0.99
NCI-H3122	0.922	0.874	0.917	1.05	0.631	0.605	0.647	0.508	0.562	0.24	0.201	0.206	0.203	0.268	0.238	0.251	0.258
PC-3 [JPC-3]	0.8	0.768	0.818	0.644		1.24	1.18	1.07	1.24	0.644	0.76	0.768	0.855	0.974	0.966	1.03	1.04
PC-14	0.893	0.966	0.849	0.806	0.237	0.293	0.241	0.283	0.338	0.781	0.693	0.825	0.925	0.874	0.86	0.818	1.02
RERF-LC-KJ	0.608	0.547	0.57	0.534	0.907	1	0.895	0.774	0.932	0.749	0.872	0.86	0.919	0.876	0.849	0.825	0.875
SK-LU-1	0.386	0.341	0.339	0.354		0.521	0.372	0.347	0.406	0.497	0.472	0.486	0.651	0.96	0.751	0.934	0.963
SK-MES-1	0.669	0.666	0.584	0.542	0.582	0.671	0.627	0.567	0.393	0.546	0.52	0.481	0.523	0.989	0.94	0.986	1.09
SW 1573	0.715	0.636	0.504	0.482	0.501	0.468	0.475	0.415	0.453	0.569	0.467	0.473	0.649	0.8	0.721	0.773	0.784
UMC-11	0.482	0.446	0.458	0.533	0.443	0.879	0.354	0.317	0.427	0.682	0.544	0.562	0.846	0.578	0.596	0.512	0.692
